Measured values: article PMC2680961, “Homologous desensitization of signalling by the alpha (α) isoform of the human thromboxane A2 receptor: A specific role for nitric oxide signalling” (Biochimica et Biophysica Acta, 2007)

Target: T1, TPα (Homo sapiens, UniProt P21731)
T1 construct: expressed in transfected cells
T1 sequence (P21731 1-343): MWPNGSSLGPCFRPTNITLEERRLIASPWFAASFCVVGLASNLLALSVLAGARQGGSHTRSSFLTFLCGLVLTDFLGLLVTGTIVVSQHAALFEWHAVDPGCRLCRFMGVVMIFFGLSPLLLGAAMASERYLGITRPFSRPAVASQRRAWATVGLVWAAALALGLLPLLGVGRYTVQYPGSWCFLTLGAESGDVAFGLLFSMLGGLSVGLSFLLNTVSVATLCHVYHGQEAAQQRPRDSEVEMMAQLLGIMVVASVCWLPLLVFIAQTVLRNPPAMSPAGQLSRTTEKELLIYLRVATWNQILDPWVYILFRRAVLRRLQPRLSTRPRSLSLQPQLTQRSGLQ
Experiment: Intracellular calcium mobilization, HEK.TPα cells
Format: cell-based
Details: HEK.TPα
Protocol: Measurement of intracellular calcium mobilization ([Ca^2+]i) in FURA2/AM preloaded HEK 293 cell lines (2 × 10^6 cells/dish), each transiently co-transfected with pADVA (10 μg), and pCMV:Gαq (25 μg), was carried out as previously described. To investigate the effect of GRK2/βARK1 on TP-mediated [Ca^2+]i mobilization, HEK.TPα or HEK.TPβ cells (2 × 10^6 cells/dish) were co-transfected with pADVA (10 μg), pCMV:Gαq (25 μg) along with pRK5:βARK1^495–689 (25 μg), encoding a dominant negative form of GRK2/βARK1[39]. Approximately 48 h post-transfection, cells were harvested by scraping, washed twice in ice-cold PBS and resuspended in HBSSHB (modified Ca^2+/Mg^2+-free Hank's buffered salt solution, containing […], pH 7.67, 0.1% bovine serum albumin (BSA)) buffer at 10^7 cells/ml and incubated in the dark with 5 μM FURA2/AM for 45 min at 37 °C. Cells were collected by centrifugation (900×g, 5 min), washed once in an equal volume of HBSSHB, and were finally resuspended in HBSSHB buffer at 10^7 cells/ml and kept at room temperature in the dark for 40 min. For each measurement of [Ca^2+]i mobilization, aliquots of cells were diluted to 0.825 × 10^6 cells/ml in HBSSHB, 1 mM CaCl2 and FURA2 fluorescence was recorded (2 ml aliquots of cells) at 37^ °C with gentle stirring with a Perkin Elmer-Cetus LS50-B spectrofluorometer at excitation wavelengths of 340 nm and 380 nm and emission wavelength of 510 nm, respectively.
[…] To assess agonist-mediated homologous desensitization, cells (0.825 × 10^6 cells/ml; 2 ml per assay) were stimulated with 1 μM U46619 (Primary stimulation) or, as a control, with the vehicle for 4 min; thereafter, cells were collected by centrifugation (900×g, 5 min); were washed twice in 2 ml HBSSHB, 1 mM CaCl2; and finally resuspended in 2 ml HBSSHB,1 mM CaCl2 and were left to recover over various time intervals (ranging from 0 to 60 min); thereafter, cells re-stimulated with 1 μM U46619 (Secondary stimulation) and changes in [Ca^2+]i mobilization were monitored as a function of time. To assess the role of protein kinase (PK) A, PKC or PKG on U46619-mediated desensitization of TPα signalling, cells were pre-incubated with the PKA inhibitor H-89 (10 μM), the PKC inhibitor GF 109203X (50 nM) or the PKG inhibitor KT 5823 (50 nM), for 15 min and respective kinase inhibitors were maintained throughout the primary/secondary U46619-stimulations and during the washes.
The vehicle had no effect on U46619-mediated [Ca^2+]i mobilization. Calibration of the signal was performed in each sample by adding 0.2% Triton X-100 to obtain the maximal fluorescence ratio (Rmax) and then 1 mM EGTA to obtain the minimal fluorescence ratio (Rmin). The ratio of the fluorescence at 340 nm to that at 380 nm is a measure of [Ca^2+]i, which assumes a Kd of 225 nM Ca^2+ for FURA2/AM. The results presented in the figures are representative data from at least three or four independent experiments and are plotted as changes in Ca^2+i mobilized (Δ[Ca^2+]i (nM)) as a function of time (s) upon ligand stimulation. Changes in [Ca^2+]i mobilization were determined by measuring peak rises in [Ca^2+]i mobilized (Δ[Ca^2+]i) and were calculated as mean changes in Δ[Ca^2+]i ± S.E.M. (nM).

For CCCCC[C@H](O)/C=C/[C@@H]1[C@@H](C/C=C\CCCC(=O)O)[C@H]2CO[C@@H]1C2 [U46619], the “Δ[Ca2+]i, U46619-induced” value (+ GRK^DN (βARK1^495–689), primary 1 μM U46619) was 150 ± 7.5 nM, the “Δ[Ca2+]i, U46619-induced” value (+ GRK^DN, secondary 1 μM U46619 at 15 min) was 0 nM and the “Δ[Ca2+]i, U46619-induced” value (primary stimulation, 1 μM U46619 4 min) was 174 ± 8.8 nM. The “Δ[Ca2+]i, U46619-induced” value (secondary stimulation 1 μM U46619 at 15 min after primary, after washout) was 0 nM, the “Δ[Ca2+]i, U46619-induced” value (secondary stimulation 1 μM U46619 at 60 min after primary, after washout) was 0 nM and the “Δ[Ca2+]i, U46619-induced” value (vehicle as primary stimulation, washout, 1 μM U46619 at 60 min) was 191.5 ± 25.5 nM. The “Δ[Ca2+]i, U46619-induced” value (− GRK^DN (pRK5 control), primary 1 μM U46619) was 165 ± 9 nM and the “Δ[Ca2+]i, U46619-induced” value (− GRK^DN, secondary 1 μM U46619 at 15 min) was 0 nM.
